Test results: patent US20050090505A1, “Methods of reducing risk of infection from pathogens” (priority 2003, published 2005)
Structures can show the parent of a compound that is named as a salt. Where two headings read alike, the source gives them in different places.

Assays:
[1] = target: T1, airway epithelial sodium currents (sodium channel) (UniProt A0A8I3MKE6+A0A8I3Q679+Q95165); test: Sodium channel blocking activity: inhibition of short circuit current (ISC) in airway epithelial monolayers mounted in Ussing chambers; format: cell-based, human, dog, sheep or rodent; settings: for Fold Amiloride** (PSA 4022 = 100): Cyclic Pyrazinoylguanidines, relative potency for PSA 4022 = 100 using EC50 from PSA 4022 in same run; for EC50: Selected Cyclic Pyrazinoylguanidines (Formula III), mean ± spread
T1 sequence (A0A8I3MKE6 1-646): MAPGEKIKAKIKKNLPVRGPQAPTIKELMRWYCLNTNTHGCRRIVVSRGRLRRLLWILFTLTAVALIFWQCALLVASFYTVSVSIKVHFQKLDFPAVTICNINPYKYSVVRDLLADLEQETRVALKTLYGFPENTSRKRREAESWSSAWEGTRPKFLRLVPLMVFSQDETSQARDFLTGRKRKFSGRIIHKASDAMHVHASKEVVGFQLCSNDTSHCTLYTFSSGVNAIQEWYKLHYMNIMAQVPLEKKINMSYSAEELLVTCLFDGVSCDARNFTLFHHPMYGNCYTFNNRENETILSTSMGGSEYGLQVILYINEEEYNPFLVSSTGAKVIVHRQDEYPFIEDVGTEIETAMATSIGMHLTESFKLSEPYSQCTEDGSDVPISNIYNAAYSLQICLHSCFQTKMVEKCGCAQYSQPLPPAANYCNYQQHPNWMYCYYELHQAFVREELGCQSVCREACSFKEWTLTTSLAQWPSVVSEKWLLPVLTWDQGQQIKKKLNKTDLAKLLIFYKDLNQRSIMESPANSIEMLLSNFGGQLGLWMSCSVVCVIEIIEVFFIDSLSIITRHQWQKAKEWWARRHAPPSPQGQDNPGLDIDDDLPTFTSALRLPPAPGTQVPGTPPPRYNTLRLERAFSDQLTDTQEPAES
T1 sequence (A0A8I3Q679 1-649): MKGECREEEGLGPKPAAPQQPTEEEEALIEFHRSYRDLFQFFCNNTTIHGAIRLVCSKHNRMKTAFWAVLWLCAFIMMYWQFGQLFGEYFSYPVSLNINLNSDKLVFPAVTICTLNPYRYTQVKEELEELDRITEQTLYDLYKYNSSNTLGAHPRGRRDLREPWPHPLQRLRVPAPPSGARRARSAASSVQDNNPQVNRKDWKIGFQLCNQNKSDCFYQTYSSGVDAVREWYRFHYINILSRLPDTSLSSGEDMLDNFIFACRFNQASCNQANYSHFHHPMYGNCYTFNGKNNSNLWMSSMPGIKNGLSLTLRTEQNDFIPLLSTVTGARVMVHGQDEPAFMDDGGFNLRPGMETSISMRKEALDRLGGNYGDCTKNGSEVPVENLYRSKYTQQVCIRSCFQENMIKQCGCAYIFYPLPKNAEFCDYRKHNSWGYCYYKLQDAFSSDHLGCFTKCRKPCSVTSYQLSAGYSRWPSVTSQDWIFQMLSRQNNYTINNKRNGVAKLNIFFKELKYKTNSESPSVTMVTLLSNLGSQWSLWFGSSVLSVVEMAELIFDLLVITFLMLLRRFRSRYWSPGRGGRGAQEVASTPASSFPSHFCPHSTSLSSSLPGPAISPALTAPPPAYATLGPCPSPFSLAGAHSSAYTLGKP
T1 sequence (Q95165 1-641): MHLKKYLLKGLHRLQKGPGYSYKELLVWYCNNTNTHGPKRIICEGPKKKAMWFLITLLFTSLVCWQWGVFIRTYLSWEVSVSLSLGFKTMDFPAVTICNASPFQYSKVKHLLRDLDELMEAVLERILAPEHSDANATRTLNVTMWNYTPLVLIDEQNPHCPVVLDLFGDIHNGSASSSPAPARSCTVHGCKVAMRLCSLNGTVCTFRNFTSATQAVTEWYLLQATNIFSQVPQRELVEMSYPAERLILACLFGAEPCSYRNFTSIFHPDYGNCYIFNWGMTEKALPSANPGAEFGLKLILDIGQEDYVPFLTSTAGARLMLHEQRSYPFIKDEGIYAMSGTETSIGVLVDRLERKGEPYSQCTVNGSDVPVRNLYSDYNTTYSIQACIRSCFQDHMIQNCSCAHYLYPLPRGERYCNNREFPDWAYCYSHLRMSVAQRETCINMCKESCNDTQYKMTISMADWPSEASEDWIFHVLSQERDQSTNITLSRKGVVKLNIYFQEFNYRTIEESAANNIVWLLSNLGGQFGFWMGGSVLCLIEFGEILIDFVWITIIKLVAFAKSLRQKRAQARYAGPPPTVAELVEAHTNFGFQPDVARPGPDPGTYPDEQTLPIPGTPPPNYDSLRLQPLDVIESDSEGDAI
Protocol: In Vitro Measure of Sodium Channel Blocking Activity and Reversibility
One assay used to assess mechanism of action and/or potency of the compounds of the present invention involves the determination of lumenal drug inhibition of airway epithelial sodium currents measured under short circuit current (ISC) using airway epithelial monolayers mounted in Ussing chambers. Cells obtained from freshly excised human, dog, sheep or rodent airways are seeded onto porous 0.4 micron Snapwell™ Inserts (CoStar), cultured at air-liquid interface (ALI) conditions in hormonally defined media, and assayed for sodium transport activity (ISC) while bathed in Krebs Bicarbonate Ringer (KBR) in Using chambers. All test drug additions are to the lumenal bath with half-log dose addition protocols (from 1×10^−11 M to 3×10^−5 M), and the cumulative change in ISC (inhibition) recorded. All drugs are prepared in dimethyl sulfoxide as stock solutions at a concentration of 1×10^−2 M and stored at −20° C. Eight preparations are typically run in parallel; two preparations per run incorporate amiloride and/or benzamil as positive controls. After the maximal concentration (5×10^−5 M) is administered, the lumenal bath is exchanged three times with fresh drug-free KBR solution, and the resultant ISC measured after each wash for approximately 5 minutes in duration. Reversibility is defined as the percent return to the baseline value for sodium current after the third wash. All data from the voltage clamps are collected via a computer interface and analyzed off-line.
Dose-effect relationships for all compounds are considered and analyzed by the Prism 3.0 program. IC50 values, maximal effective concentrations, and reversibility are calculated and compared to amiloride and benzamil as positive controls.

**Q.** For N=C(NCCOCCOCCN)NC(=O)c1nc(Cl)c(N)nc1N, which melting point is on record?
**A.** 87 to 90 °C

**Q.** Which melting point does the source give for CC(C)(C)OC(=O)NCCCCCCCCCCNC(=N)NC(=O)c1nc(Cl)c(N)nc1N here?
**A.** 186 to 188 °C

**Q.** With CC(C)(C)OC(=O)N=C(NCCCCCCCCNC(=N)NC(=O)c1nc(Cl)c(N)nc1N)NC(=O)OC(C)(C)C as the compound, how does the melting point read?
**A.** 208 to 210 °C (dec.)

**Q.** Which melting point does the source give for CC(C)(C)OC(=O)NCCCCCCCCCCCNC(=N)NC(=O)c1nc(Cl)c(N)nc1N here?
**A.** 82 to 84 °C

**Q.** With N=C(NCCCCc1ccc(OCC(=O)NCC(N)=O)cc1)NC(=O)c1nc(Cl)c(N)nc1N (as salt: HCl) [compound 16314, N-carbamoylmethyl-2-(4-{4-[N′-(3,5-diamino-6-chloropyrazine-2-carbonyl)guanidino]butyl}phenoxy)acetamide] as the compound, how does the melting point read?
**A.** 178 to 180 °C (dec.)

**Q.** For N=C(N)NCCOCCOCCNC(=N)NC(=O)c1nc(Cl)c(N)nc1N (as salt: hydrochloride), which melting point is on record?
**A.** 108 to 112 °C (dec.)

**Q.** For N=C(NCCCOCCCN)NC(=O)c1nc(Cl)c(N)nc1N (as salt: hydrochloride), which melting point is on record?
**A.** 164 to 166 °C (dec.)

**Q.** Which melting point does the source give for N=C(N)NCCCOCCCNC(=N)NC(=O)c1nc(Cl)c(N)nc1N (as salt: hydrochloride) here?
**A.** 72 to 75 °C (dec.)

**Q.** With CN(C)C(=O)COc1ccc(CCCCNC(=N)NC(=O)c2nc(Cl)c(N)nc2N)cc1 (as salt: hydrochloride) [compound 16313, 2-(4-{4-[N-(3,5-diamino-6-chloropyrazine-2-carbonyl)guanidino]-butyl}phenoxy)-N,N-dimethylacetamide hydrochloride] as the compound, how does the melting point read?
**A.** 130 to 132 °C (dec.)

**Q.** With N=C(NCCCCc1ccc(OCC(=O)Nc2ncc[nH]2)cc1)NC(=O)c1nc(Cl)c(N)nc1N (as salt: hydrochloride) [compound 16437, 2-(4-{4-[N′-(3,5-diamino-6-chloropyrazine-2-carbonyl)guanidino]-butyl}phenoxy)-N-(1H-imidazol-2-yl)acetamide dihydrochloride] as the compound, how does the melting point read?
**A.** 172 to 174 °C

**Q.** With N=C(NCCCCCCN)NC(=O)c1nc(Cl)c(N)nc1N (as salt: hydrochloride) [compound 18706, N-(6-aminohexyl)-N′-(3,5-diamino-6-chloropyrazine-2-carbonyl)guanidine dihydrochloride] as the compound, how does the melting point read?
**A.** > 240 °C

**Q.** Which melting point does the source give for N=C(N)NCCCCCCCCCNC(=N)NC(=O)c1nc(Cl)c(N)nc1N (as salt: hydrochloride) [compound 19006, N-{9-[N′-(3,5-diamino-6-chloropyrazine-2-carbonyl)guanidino]nonyl}guanidine dihydrochloride] here?
**A.** 178 to 180 °C

**Q.** Which melting point does the source give for N=C(N)NCCCCCCCNC(=N)NC(=O)c1nc(Cl)c(N)nc1N (as salt: hydrochloride) [compound 19155, N-{7-[N′-(3,5-diamino-6-chloropyrazine-2-carbonyl)guanidino]heptyl}guanidine dihydrochloride] here?
**A.** 140 to 142 °C

**Q.** Which melting point does the source give for N=C(NCCCCCCCCCN)NC(=O)c1nc(Cl)c(N)nc1N (as salt: hydrochloride) [compound 19335, N-(9-aminononyl)-N′-(3,5-diamino-6-chloropyrazine-2-carbonyl)-guanidine dihydrochloride] here?
**A.** 155 to 157 °C (dec.)

**Q.** For N=C(NCCCCCCCCN)NC(=O)c1nc(Cl)c(N)nc1N (as salt: hydrochloride) [compound 19336, N-(8-aminooctyl)-N′-(3,5-diamino-6-chloropyrazine-2-carbonyl)-guanidine dihydrochloride], which melting point is on record?
**A.** 253 to 255 °C

**Q.** Which melting point does the source give for N=C(NCCCCCCCCCCN)NC(=O)c1nc(Cl)c(N)nc1N (as salt: hydrochloride) [compound 19487, N-(10-aminodecyl)-N′-(3,5-diamino-6-chloropyrazine-2-carbonyl)-guanidine dihydrochloride] here?
**A.** 168 to 170 °C

**Q.** For N=C(N)NCCCCCCCCNC(=N)NC(=O)c1nc(Cl)c(N)nc1N (as salt: hydrochloride) [compound 19604, N-{8-[N′-(3,5-diamino-6-chloropyrazine-2-carbonyl)guanidino]octyl}-guanidine dihydrochloride], which melting point is on record?
**A.** 130 to 132 °C

**Q.** For Cl.Cl.Cl.N=C(NCCCCC1CCN(CCN)CC1)NC(=O)c1nc(Cl)c(N)nc1N [compound 25455, N-{4-[1-(2-Aminoethyl)piperidin-4-yl]butyl}-N′-(3,5-diamino-6-chloropyrazine-2-carbonyl)guanidine trihydrochloride], which “Fold Amiloride** (PSA 4022 = 100)” value [1] is on record?
**A.** 5 ± 1

**Q.** And the EC50 ([1]; read-out: EC50)?
**A.** 0.104 ± 0.032 µM

**Q.** Which “Fold Amiloride** (PSA 4022 = 100)” value [1] does the source give for N=C(NCCCCC1CCN(CC(O)CO)CC1)NC(=O)c1nc(Cl)c(N)nc1N (centres unmarked) [compound 25456, N-(3,5-Diamino-6-chloropyrazine-2-carbonyl)-N′-{4-[1-(2,3-dihydroxypropyl)-piperidin-4-yl]butyl}guanidine] here?
**A.** 6 ± 2

**Q.** What about the EC50 ([1]; read-out: EC50) of the same compound?
**A.** 0.106 ± 0.034 µM

**Q.** What does the source list for N=C(NCCCCC1CCN(CCCN)CC1)NC(=O)c1nc(Cl)c(N)nc1N [compound 25510, N-{4-[1-(3-Aminopropyl)piperidin-4-yl]butyl}-N′-(3,5-diamino-6-chloropyrazine-2-carbonyl)guanidine trihydrochloride]?
**A.** Fold Amiloride** (PSA 4022 = 100) [1]: 3 ± 9; EC50 [1]: 0.061 ± 0.023 µM

**Q.** Which results are given for CC(C)(C)OC(=O)N=C(NCCCN1CCC(CCCCNC(=N)NC(=O)c2nc(Cl)c(N)nc2N)CC1)NC(=O)OC(C)(C)C [compound 25569, N-(3,5-Diamino-6-chloropyrazine-2-carbonyl)-N′-{4-[1-(3-[N″,N′″-bis-tert-butoxycarbonyl]guanidinopropyl)piperidin-4-yl]butyl}guanidine]?
**A.** Fold Amiloride** (PSA 4022 = 100) [1]: 41 ± 9; EC50 ([1]; read-out: EC50): 0.016 ± 0.003 µM

**Q.** For Cl.Cl.Cl.N=C(N)NCCCN1CCC(CCCCNC(=N)NC(=O)c2nc(Cl)c(N)nc2N)CC1 [compound 25795, N-(3,5-Diamino-6-chloropyrazine-2-carbonyl)-N′-{4-[1-(3-guanidinopropyl)piperidin-4-yl]butyl}guanidine trihydrochloride], which “Fold Amiloride** (PSA 4022 = 100)” value [1] is on record?
**A.** 18 ± 7
